Test results: US6770456B1, “Endogenous retrovirus tumor associated nucleic acids and antigens” (Ludwig Institute for Cancer Research, priority 1998, dated 2004)

Test system: AVL3-EBV B cells
Assay: Peptide sensitization of EBV-transformed B cells to lysis by CTL 13 (51Cr release)
Format: cell-based, human
Settings: 51Cr-labeled cells incubated 30 min at 20° C. with peptide; effector:target 5:1; chromium release after 4 hr; read-out: half-maximal effect for sensitizing AVL3-EBV B cells to lysis by CTL clone 13
Description: Sensitivity of target cells to lysis by the CTL was evaluated by a standard ^51Cr-release assay over 4 hr. Some lysis assays were performed in the presence of the following murine monoclonal antibodies: BB7.2, an IgG2b anti-HLA-A2 (from the ATCC), and OKM1, an IgG2b anti-CD11b (from the ATCC).
One of them, MLAVISCAV (SEQ ID NO:9), was contained within an open reading frame starting with an initiation codon preceeded by a canonical Kozak consensus sequence. This peptide sensitized AVL3-EBV B cells to lysis by CTL clone 13, with an half-maximal effect at 5 nM (FIG. 4). ^51Cr-labeled EBV-transformed B cells from patient AVL3 were incubated for 30 min at 20° C. with the indicated concentrations of peptide. CTL 13 were then added at an effector:target ratio of 5:1, and chromium release was measured after 4 hr.

Q: MLAVISCAV was tested. Which EC50 did it give?
A: Its EC50 is 5 nM.
